This note sets out measurements from patent publication US8470812B2, “Substituted benzo-pyrimido-tetrazolo-diazepine compounds” (ArQule, Inc., priority 2009, dated 2013).

Where a name gives a salt, the structure may show the parent alone.

One data set deals with CaMK2α (Homo sapiens, UniProt Q9UQM7). In words: CaMKII kinase activity, mobility shift assay (MSA). Format: biochemical. The following applies: 10 μM compound; ATP 50, GS peptide 1 uM; read-out: CaMK2α inh. @ 10 μM (%). As to the method: (§1) CAMKII and CDK7 activity was assayed using a mobility shift assay (MSA). Test inhibitors and controls (staurosporine) were prepared at 4× the desired final concentration. Test compound (5.0 μL), 4× substrate/ATP/metal solution (5.0 μL), and 2× kinase (10 μL) were added to each well of a reaction plate and incubated for 1 hr at room temperature. The assay components were diluted in assay buffer (20 mM HEPES pH 7.5, 0.01% Triton X-100, 2 mM DTT). To terminate the reaction, 60 μL of termination buffer (QuickScout Screening Assist MSA, Carna Biosciences) was added to each well. The reaction mixture was applied to the LabChip3000 system (Caliper Life Sciences) and the product and substrate peptide peaks were separated and quantified.

Another data set addresses CaMK2δ (Homo sapiens, UniProt Q13557). In words: CaMKII kinase activity, mobility shift assay (MSA). The data set is classed as biochemical. The following applies: 10 μM compound; ATP 5, GS peptide 1 uM; read-out: CaMK2δ inh. @ 10 μM (%). How it is done:
as §1

The target in a further data set is CaMK2γ (Homo sapiens, UniProt Q13555). Description: CaMKII kinase activity, mobility shift assay (MSA). Format: biochemical. As to conditions: 10 μM compound; ATP 25, GS peptide 1 uM; read-out: CaMK2γ inh. @ 10 μM (%). How it is done: as §1
The target in a further data set is CaMK2β (Homo sapiens, UniProt Q13554). In words: CaMKII kinase activity, mobility shift assay (MSA). The data set is classed as biochemical. The following applies: 10 μM compound; ATP 25, GS peptide 1 uM; read-out: CaMK2β inh. @ 10 μM (%). As to the method: as §1
A further data set deals with MDA-MB-231 cancer cells. In words: MTS assay, cell growth inhibition. Format: cell-based. The following applies: MDA-MB-231 cells, 72 h incubation; test concentration not given. As to the method:
(§2) Cells were maintained at 37° C., 5% CO2 in DMEM media supplemented with 1% fetal bovine serum, penicillin/streptomycin and fungizone (Invitrogen). Cells were seeded into 96-well tissue culture plates at 3000 per well and cultured at 37° C. for 18 hours. Test compounds were dissolved and diluted to 300× in DMSO then diluted 1:40 in DMEM. Cells were incubated with test compounds for 72 hours followed by incubation with tetrazolium compound (3-(4,5-dimethylthiazol-2-yl)-5-(3-carboxymethoxyphenyl)-2-(4-sulfophenyl)-2H-tetrazolium, inner salt; MTS) and the electron coupling reagent, phenazine methosulfate (PMS) for 4 hours. […] The ability of compounds to inhibit cell growth in this assay is correlated with the reduction of dehydrogenase enzyme activity found in metabolically active cells. The measurement of the absorbance of the formazan was assessed using a Victor (Perkin Elmer) microplate reader at 492 nm. The calculated IC50 value is the concentration of the test compound that causes a 50% decrease in the absorbance. Selected compounds have been tested in DLD-1 and MDA-MB-231 cancer cells.
On the technique in general: Formazan colour is commonly taken as a measure of viable cells.

The subject of a further data set is DLD-1 cancer cells. In words: MTS assay, cell growth inhibition. Format: cell-based. The following applies: DLD-1 cells, 72 h incubation; test concentration not given. As to the method:
as §2

The target in the next data set is CDK7 (Homo sapiens, UniProt P50613). In words: CDK7 kinase activity, mobility shift assay (MSA). The data set is classed as biochemical. The following applies: 10 μM compound; ATP 50, CTD3 peptide 1 uM; read-out: CDK7 inh. @ 10 μM (%). How it is done:
as §1

Chain of CDK7 (P50613 whole entry, species assumed): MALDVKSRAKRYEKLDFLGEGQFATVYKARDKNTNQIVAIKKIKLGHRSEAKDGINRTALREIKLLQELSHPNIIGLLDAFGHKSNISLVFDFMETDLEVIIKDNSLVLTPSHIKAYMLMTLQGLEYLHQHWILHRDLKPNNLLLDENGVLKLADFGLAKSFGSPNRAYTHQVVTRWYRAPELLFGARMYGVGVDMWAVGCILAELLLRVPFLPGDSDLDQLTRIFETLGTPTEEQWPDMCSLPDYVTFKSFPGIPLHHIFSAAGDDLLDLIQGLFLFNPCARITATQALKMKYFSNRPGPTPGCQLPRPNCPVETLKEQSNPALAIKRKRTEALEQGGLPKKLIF
Chain of CDK7 (P51946 whole entry partner, species assumed): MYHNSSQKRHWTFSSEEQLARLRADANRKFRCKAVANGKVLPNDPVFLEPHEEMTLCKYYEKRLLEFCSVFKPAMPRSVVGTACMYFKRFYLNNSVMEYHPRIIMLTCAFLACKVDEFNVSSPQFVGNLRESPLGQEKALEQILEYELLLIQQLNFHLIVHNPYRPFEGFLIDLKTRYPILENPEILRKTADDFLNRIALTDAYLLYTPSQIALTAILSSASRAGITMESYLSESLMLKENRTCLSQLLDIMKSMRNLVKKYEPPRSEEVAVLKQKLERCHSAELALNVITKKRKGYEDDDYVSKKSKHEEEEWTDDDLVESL
Chain of CDK7 (P51948 whole entry partner, species assumed): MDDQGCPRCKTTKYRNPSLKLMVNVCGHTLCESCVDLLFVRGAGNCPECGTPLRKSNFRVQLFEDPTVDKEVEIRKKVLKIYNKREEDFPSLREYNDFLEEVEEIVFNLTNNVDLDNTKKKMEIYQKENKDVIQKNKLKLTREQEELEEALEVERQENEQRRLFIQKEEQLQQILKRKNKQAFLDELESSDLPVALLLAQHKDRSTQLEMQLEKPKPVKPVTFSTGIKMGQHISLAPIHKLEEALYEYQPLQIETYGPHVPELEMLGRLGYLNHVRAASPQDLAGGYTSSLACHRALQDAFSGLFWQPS

Regarding `CN1CCN(c2ncc3c(n2)N(Cc2ccc(F)c(F)c2)c2ccccc2-n2nnnc2-3)CC1` [Compound 14, 9-(3,4-difluorobenzyl)-11-(4-methylpiperazin-1-yl)-9H-pyrimido[5,4-c]tetrazolo[1,5-a][1,5]benzodiazepine], the inhibition at 10 µM turned out to be 96% on CaMK2α, 96% on CaMK2δ, 80% on CaMK2γ and 88% at CaMK2β. Moreover, in the data set on MDA-MB-231 cancer cells, the “MDA-MB-231, MTS, 72 h (% Inhibition)” value is reported as 58%. Also, the “DLD-1, MTS, 72 h (% Inhibition)” value in the data set with DLD-1 cancer cells is listed as 49%.
For orientation: melting point means the temperature of the solid-liquid transition. As for `CN1CCN(c2ncc3c(n2)N(Cc2ccc(F)c(F)c2)c2ccccc2-n2nnnc2-3)CC1` (as salt: HCl) [Compound 14, 9-(3,4-difluorobenzyl)-11-(4-methylpiperazin-1-yl)-9H-pyrimido[5,4-c]tetrazolo[1,5-a][1,5]benzodiazepine], the melting point lay in the range of 180 to 191 °C.
Consider `Fc1ccc(CN2c3ccccc3-n3nnnc3-c3cnc(NCCN4CCOCC4)nc32)cc1F` [Compound 18, 9-(3,4-difluorobenzyl)-N-(2-morpholin-4-ylethyl)-9H-pyrimido[5,4-c]tetrazolo[1,5-a][1,5]benzodiazepin-11-amine], for which the inhibition at 10 µM at CDK7 was found to be 84%; on CaMK2α, 42%; at CaMK2δ, 32%; on CaMK2γ, 12%; on CaMK2β, 23%.
Consider `Fc1ccc(CN2c3ccccc3-n3nnnc3-c3cnc(NCc4cccnc4)nc32)cc1F` [Compound 16, 9-(3,4-difluorobenzyl)-N-(pyridin-3-ylmethyl)-9H-pyrimido[5,4-c]tetrazolo[1,5-a][1,5]benzodiazepin-11-amine], for which the inhibition at 10 µM on CaMK2α turned out to be 67%; at CaMK2δ it was 65%; at CaMK2γ, 11%; at CaMK2β, 41%. The “MDA-MB-231, MTS, 72 h (% Inhibition)” value with MDA-MB-231 cancer cells is 30%. Besides, in the data set with DLD-1 cancer cells, the “DLD-1, MTS, 72 h (% Inhibition)” value was determined as 38%.
In the case of `COc1cc(CNc2ncc3c(n2)Nc2ccccc2-n2nnnc2-3)cc(OC)c1OC` [Compound 72, N-(3,4,5-trimethoxybenzyl)-9H-pyrimido[5,4-c]tetrazolo[1,5-a][1,5]benzodiazepin-11-amine], the “MDA-MB-231, MTS, 72 h (% Inhibition)” value with MDA-MB-231 cancer cells came out at 78%. Besides, the “DLD-1, MTS, 72 h (% Inhibition)” value in the data set on DLD-1 cancer cells is given as 97%.
The like results for `COc1ccc(OC)c(CNc2ncc3c(n2)Nc2ccccc2-n2nnnc2-3)c1` [Compound 103, N-(2,5-dimethoxybenzyl)-9H-pyrimido[5,4-c]tetrazolo[1,5-a][1,5]benzodiazepin-11-amine] were, in that order, 97% and 97%.
For `CCCN(C)c1ncc2c(n1)Nc1ccccc1-n1nnnc1-2` [Compound 104, N-methyl-N-propyl-9H-pyrimido[5,4-c]tetrazolo[1,5-a][1,5]benzodiazepin-11-amine], in that order: 99% and 97%.
The like results for `Fc1ccc(CN2c3ccccc3-n3nnnc3-c3cnc(N4CCNCC4)nc32)cc1F` [Compound 11, 9-(3,4-difluorobenzyl)-11-piperazin-1-yl-9H-pyrimido[5,4-c]tetrazolo[1,5-a][1,5]benzodiazepine] were, in that order, 97% and 97%.
Regarding `Fc1ccc(CN2c3ccccc3-n3nnnc3-c3cnc(N4CCOCC4)nc32)cc1F` [Compound 13, 9-(3,4-difluorobenzyl)-11-morpholin-4-yl-9H-pyrimido[5,4-c]tetrazolo[1,5-a][1,5]benzodiazepine], in the data set on MDA-MB-231 cancer cells, the “MDA-MB-231, MTS, 72 h (% Inhibition)” value was 98%. Moreover, the “DLD-1, MTS, 72 h (% Inhibition)” value with DLD-1 cancer cells worked out at 97%.
For `Fc1ccc(F)c(CNc2ncc3c(n2)Nc2ccccc2-n2nnnc2-3)c1` [Compound 59, N-(2,5-difluorobenzyl)-9H-pyrimido[5,4-c]tetrazolo[1,5-a][1,5]benzodiazepin-11-amine], in that order: 71% and 97%.
The like results for `COc1cc(CNc2ncc3c(n2)Nc2ccccc2-n2nnnc2-3)cc(OC)c1` [Compound 24, N-(3,5-dimethoxybenzyl)-9H-pyrimido[5,4-c]tetrazolo[1,5-a][1,5]benzodiazepin-11-amine] were, in that order, 33% and 95%.
